Experimental data taken from patent US20170128389A1, “Paediatric Compositions For Treating Multiple Sclerosis” (Novartis AG, priority 2008, published 2017).

Key:
[1] = test system: patients with relapsing multiple sclerosis (MS); experiment: Hamburg Quality of Life Questionnaire in MS (HAQUAMS) scores, core 6-month study and extension; type: in vivo, human
Protocol: Hamburg Quality of Life Questionnaire in MS (HAQUAMS) scores were recorded at baseline, month 3 (M3), and M6 during a core 6-month study, and M12 and M24 during an extension of the core study. The HAQUAMS consists of 38 items, 28 of which contribute to five sub-domains. Domain scores range from 1 to 5, with lower scores indicating improved HRQL. A total score was generated by averaging the five sub-domain scores.

[2] = test system: patients with relapsing multiple sclerosis (MS); experiment: 6-month, placebo-controlled trial of oral FTY720 in 281 patients with relapsing MS; type: in vivo, human; conditions: oral 1.25 or 5.0 mg once-daily, 6 months
[3] = test system: patients with relapsing multiple sclerosis (MS); experiment: long-term extension of the study (up to 36 months, FTY720 once-daily)
From the text: All patients who subsequently opted to enter a long-term extension of the study received FTY720 once-daily for up to 38 months.

[4] = test system: patients with moderate asthma; experiment: randomized, double-blind, placebo-controlled ascending multiple oral dose study in patients with moderate asthma; type: in vivo, human; conditions: 0.5, 1.25 or 2.5 mg, 10 days
Protocol: A randomized, double-blind, placebo-controlled, parallel, time-lagged, ascending, multiple oral dose study, is performed in patients with moderate asthma: 36 patients in 3 cohorts (12 patients per cohort). In each cohort, patients are randomized between the FTY720 group (9 patients) and placebo (3 patients)
Cohort 1: FTY720 0.5 mg or placebo
Cohort 2: FTY720 1.25 mg or placebo
Cohort 3: FTY720 2.5 mg or placebo
Duration of treatment: 10 days.
Patients continue to take their standard daily dose of long-acting β2 agonist and inhaled corticosteroid throughout the study uninterrupted.
Pulmonary function test (FEV1, FEF25-75): is performed at 12-hour profile on Day 1 (pre-dose, 1, 2, 3, 4, 5, 6, and 12 hr post dose), 6-hour profile at baseline (Day −1) and on Day 10. An additional PFT is done 6 hours post dose on Days 2, 3, and 7.

[5] = test system: lymphocyte counts / tolerability in adolescents; experiment: open-label, single-dose 28-day pharmacokinetic and safety/tolerability study in pediatric patients; type: in vivo, human
Protocol: An open-label, single-dose 28-day pharmacokinetic and safety/tolerability study of FTY720 in pediatric is performed (8 patients aged 11-17 years, 5 patients aged 8-10 years and 5 patients aged 1-5 years). The contents of 0.5 mg capsules is dispersed in water and administered as an oral solution at a dose of 0.07 mg/kg to a maximum dose of 5 mg. The dose is administered by study personnel either directly from the glass mixing vial or with an oral syringe followed by drinking 2 water-rinse cycles of the vial or syringe and an additional 50-200 mL of water.
Blood samples are collected for 28 days postdose and analyzed for fingolimod and fingolimod-phosphate blood concentrations by validated liquid chromatography methods with tandem mass spectrometry. Standard noncompartmental pharmacokinetic parameters are derived. Absolute lymphocyte counts are measured over 28 days to characterize the effect of FTY720 on lymphocyte decrease and recovery. Heart rate is recorded frequently for 24 hours postdose.
Safety and tolerability assessments includes information on adverse events, body height and weight, supine systolic and diastolic blood pressure and radial pulse rate; standard 12-lead electrocardiograms (ECGs) interpreted at eResearchTechnology, Inc (Philadelphia, Pa., USA); standard hematology, biochemistry, and urinalysis parameters; screens for Hepatitis B surface antigen (HBsAg), Hepatitis C antibodies, and HIV; and pregnancy tests.

[6] = after 36 months of continuous treatment

SMILES: CCCCCCCCc1ccc(CCC(N)(CO)CO)cc1 [FTY720, 2-amino-2-[2-(4-octylphenyl)ethyl]propane-1,3-diol]
- HAQUAMS mean total score ([1]; M6, oral 1.25 mg): 1.9
- HAQUAMS total score, mean change from baseline ([1]; M6, oral 1.25 mg): −0.02
- HAQUAMS mean total score ([1]; M6, oral 5 mg): 1.9
- HAQUAMS total score, mean change from baseline ([1]; M6, oral 5 mg): −0.01
- HAQUAMS fatigue/thinking domain, change ([1]; baseline to M6, oral 1.25 mg (placebo +0.14; p=0.030)): −0.05
- total HAQUAMS scores ([1]; through M24): Stable
- reduction of annualized relapse rate (ARR) versus placebo [2]: > 50%
- reduction of cumulative number of gadolinium-enhancing (Gd+) lesions versus placebo [2]: up to 80%
- safety profile ([3]; 1.25 mg dose): good safety profile
- clinical and MRI activity ([3]; after 3 years of follow-up, continuous oral 1.25 mg or 5.0 mg dose): persistent inhibition of clinical and MRI activity
- ARR [3, 6]: 0.20-0.21
- patients remained relapse-free [3, 6]: 68-73%
- patients free from 6-month sustained disability progression ([3]; month 36): 76-80%
- patients free from Gd+ lesions ([3]; month 36, each group): 88-89%
- patients free from new T2 lesions ([3]; month 36, each group): 70-78%
- discontinuation rate ([3]; months 12-24 of extension): 17.2%
- diarrhea reported ([3]; months 24-36): 2.7%
- dyspnea reported ([3]; months 24-36): 1.1%
- nausea reported ([3]; months 24-36): 2.1%
- discontinuation rate ([3]; months 24-36 of extension): 6.0%
- tolerability of treatment initiation [4]: well tolerated
- lymphocyte count nadir ([5]; adolescents, single dose): 0.37±0.17 ×10^9/L
- time of lymphocyte nadir (median) ([5]; adolescents, single dose): 2 days postdose
- decrease of mean lymphocyte counts from predose ([5]; adolescents, single dose, predose count 2.64±1.04×10^9/L): 85%
- lymphocyte count recovery ([5]; by end-of-study visit on day 28): back to baseline
- tolerability ([5]; single dose 0.07 mg/kg oral solution, adolescents): well tolerated
